Assay results from PubChem BioAssay (NCI).
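Protocol summary: plate cells (96-well), add compound at 5 concentrations, incubate 48 h, interpolate endpoints linearly. The concentration for full growth arrest is given as TGI.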

Tests used:
Experiment in all cases: DTP human tumour cell line panel, 48 h
786-0 renal = tested on: 786-0 renal
A498 renal = tested on: A498 renal
A549 NSCLC = tested on: A549 NSCLC
ACHN renal = tested on: ACHN renal
BT-549 breast = tested on: BT-549 breast
CAKI-1 renal = tested on: CAKI-1 renal
CCRF-CEM leukemia = tested on: CCRF-CEM leukemia
COLO 205 colon = tested on: COLO 205 colon
DU-145 prostate = tested on: DU-145 prostate
EKVX NSCLC = tested on: EKVX NSCLC
HCC-2998 colon = tested on: HCC-2998 colon
HCT-116 colon = tested on: HCT-116 colon
HCT-15 colon = tested on: HCT-15 colon
HL-60(TB) leukemia = tested on: HL-60(TB) leukemia
HOP-62 NSCLC = tested on: HOP-62 NSCLC
HS 578T breast = tested on: HS 578T breast
HT29 colon = tested on: HT29 colon
IGROV1 ovarian = tested on: IGROV1 ovarian
K-562 leukemia = tested on: K-562 leukemia
KM12 colon = tested on: KM12 colon
LOX IMVI melanoma = tested on: LOX IMVI melanoma
M14 melanoma = tested on: M14 melanoma
MALME-3M melanoma = tested on: MALME-3M melanoma
MCF7 breast = tested on: MCF7 breast
MDA-MB-231 breast = tested on: MDA-MB-231 breast
MDA-MB-435 = tested on: MDA-MB-435
MDA-N = tested on: MDA-N
MOLT-4 leukemia = tested on: MOLT-4 leukemia
NCI-H226 lung = tested on: NCI-H226 lung
NCI-H23 lung = tested on: NCI-H23 lung
NCI-H460 lung = tested on: NCI-H460 lung
NCI-H522 lung = tested on: NCI-H522 lung
NCI/ADR-RES ovarian = tested on: NCI/ADR-RES ovarian
OVCAR-3 ovarian = tested on: OVCAR-3 ovarian
OVCAR-4 ovarian = tested on: OVCAR-4 ovarian
OVCAR-5 ovarian = tested on: OVCAR-5 ovarian
OVCAR-8 ovarian = tested on: OVCAR-8 ovarian
PC-3 prostate = tested on: PC-3 prostate
RPMI-8226 leukemia = tested on: RPMI-8226 leukemia
SF-268 CNS = tested on: SF-268 CNS
SF-295 CNS = tested on: SF-295 CNS
SF-539 CNS = tested on: SF-539 CNS
SK-MEL-2 melanoma = tested on: SK-MEL-2 melanoma
SK-MEL-28 melanoma = tested on: SK-MEL-28 melanoma
SK-MEL-5 melanoma = tested on: SK-MEL-5 melanoma
SK-OV-3 ovarian = tested on: SK-OV-3 ovarian
SN12C renal = tested on: SN12C renal
SNB-19 CNS = tested on: SNB-19 CNS
SR leukemia = tested on: SR leukemia
SW-620 colon = tested on: SW-620 colon
T-47D breast = tested on: T-47D breast
TK-10 renal = tested on: TK-10 renal
U251 CNS = tested on: U251 CNS
UACC-257 melanoma = tested on: UACC-257 melanoma
UACC-62 melanoma = tested on: UACC-62 melanoma
UO-31 renal = tested on: UO-31 renal
SNB-75 CNS = tested on: SNB-75 CNS

Clc1cc2c(cc1Cl)CC(NCCN1CCCC1)CC2 (stereo unspecified)
TGI (786-0 renal): 26.3 µM
TGI (A498 renal): 27.4 µM
TGI (A549 NSCLC): 29.4 µM
TGI (ACHN renal): 31.8 µM
TGI (BT-549 breast): 28.8 µM
TGI (CAKI-1 renal): 30.2 µM
TGI (CCRF-CEM leukemia): > 100 µM
TGI (COLO 205 colon): 10.7 µM
TGI (DU-145 prostate): 27.8 µM
TGI (EKVX NSCLC): 38.7 µM
TGI (HCC-2998 colon): 8.02 µM
TGI (HCT-116 colon): 26.3 µM
TGI (HCT-15 colon): 26.5 µM
TGI (HL-60(TB) leukemia): 37.6 µM
TGI (HOP-62 NSCLC): 30.7 µM
TGI (HS 578T breast): 42.4 µM
TGI (HT29 colon): 18.1 µM
TGI (IGROV1 ovarian): 29 µM
TGI (K-562 leukemia): 48.9 µM
TGI (KM12 colon): 32.3 µM
TGI (LOX IMVI melanoma): 27.2 µM
TGI (M14 melanoma): 25.4 µM
TGI (MALME-3M melanoma): 22.8 µM
TGI (MCF7 breast): 31 µM
TGI (MDA-MB-231 breast): 30.3 µM
TGI (MDA-MB-435): 14.4 µM
TGI (MDA-N): 14.3 µM
TGI (MOLT-4 leukemia): 60 µM
TGI (NCI-H226 lung): 32.1 µM
TGI (NCI-H23 lung): 30.9 µM
TGI (NCI-H460 lung): 31.2 µM
TGI (NCI-H522 lung): 32.4 µM
TGI (NCI/ADR-RES ovarian): 27.8 µM
TGI (OVCAR-3 ovarian): 32 µM
TGI (OVCAR-4 ovarian): 35.9 µM
TGI (OVCAR-5 ovarian): 29.6 µM
TGI (OVCAR-8 ovarian): 31.1 µM
TGI (PC-3 prostate): 30.3 µM
TGI (RPMI-8226 leukemia): 38.1 µM
TGI (SF-268 CNS): 29.7 µM
TGI (SF-295 CNS): 29.8 µM
TGI (SF-539 CNS): 28 µM
TGI (SK-MEL-2 melanoma): 34.9 µM
TGI (SK-MEL-28 melanoma): 29.9 µM
TGI (SK-MEL-5 melanoma): 14.7 µM
TGI (SK-OV-3 ovarian): 34.9 µM
TGI (SN12C renal): 31.4 µM
TGI (SNB-19 CNS): 46.3 µM
TGI (SR leukemia): 38 µM
TGI (SW-620 colon): 45.7 µM
TGI (T-47D breast): 25.5 µM
TGI (TK-10 renal): 27.6 µM
TGI (U251 CNS): 31.1 µM
TGI (UACC-257 melanoma): 21.3 µM
TGI (UACC-62 melanoma): 8.15 µM
TGI (UO-31 renal): 23.6 µM

O=C1NCc2ccccc2S(=O)(=O)n2cccc21
TGI (786-0 renal): > 100 µM
TGI (A549 NSCLC): > 100 µM
TGI (ACHN renal): > 100 µM
TGI (BT-549 breast): > 100 µM
TGI (CAKI-1 renal): > 100 µM
TGI (CCRF-CEM leukemia): > 100 µM
TGI (COLO 205 colon): > 100 µM
TGI (DU-145 prostate): > 100 µM
TGI (EKVX NSCLC): > 100 µM
TGI (HCC-2998 colon): > 100 µM
TGI (HCT-116 colon): > 100 µM
TGI (HCT-15 colon): > 100 µM
TGI (HL-60(TB) leukemia): > 100 µM
TGI (HOP-62 NSCLC): > 100 µM
TGI (HS 578T breast): > 100 µM
TGI (HT29 colon): > 100 µM
TGI (IGROV1 ovarian): > 100 µM
TGI (KM12 colon): > 100 µM
TGI (LOX IMVI melanoma): > 100 µM
TGI (M14 melanoma): > 100 µM
TGI (MALME-3M melanoma): > 100 µM
TGI (MCF7 breast): > 100 µM
TGI (MDA-MB-231 breast): > 100 µM
TGI (MDA-MB-435): > 100 µM
TGI (MDA-N): > 100 µM
TGI (MOLT-4 leukemia): > 100 µM
TGI (NCI-H226 lung): > 100 µM
TGI (NCI-H23 lung): > 100 µM
TGI (NCI-H460 lung): > 100 µM
TGI (NCI-H522 lung): > 100 µM
TGI (NCI/ADR-RES ovarian): > 100 µM
TGI (OVCAR-3 ovarian): > 100 µM
TGI (OVCAR-4 ovarian): > 100 µM
TGI (OVCAR-5 ovarian): > 100 µM
TGI (OVCAR-8 ovarian): > 100 µM
TGI (PC-3 prostate): > 100 µM
TGI (RPMI-8226 leukemia): > 100 µM
TGI (SF-268 CNS): > 100 µM
TGI (SF-295 CNS): > 100 µM
TGI (SF-539 CNS): > 100 µM
TGI (SK-MEL-2 melanoma): > 100 µM
TGI (SK-MEL-28 melanoma): > 100 µM
TGI (SK-MEL-5 melanoma): > 100 µM
TGI (SK-OV-3 ovarian): > 100 µM
TGI (SN12C renal): > 100 µM
TGI (SNB-19 CNS): > 100 µM
TGI (SNB-75 CNS): > 100 µM
TGI (SR leukemia): > 100 µM
TGI (SW-620 colon): > 100 µM
TGI (T-47D breast): > 100 µM
TGI (TK-10 renal): > 100 µM
TGI (U251 CNS): > 100 µM
TGI (UACC-257 melanoma): > 100 µM
TGI (UACC-62 melanoma): > 100 µM
TGI (UO-31 renal): > 100 µM
